Results: patent publication US7943128B2, “Anti-microbial compositions comprising a cationic peptide and a glycylglycine endopeptidase” (priority 2006, dated 2011)
Positions of bridges follow the written chain, without caps; N, C: chain ends. No end group written: not given here.

What was measured:
[1] = system: Staphylococcus aureus strains MSSA476 and MRSA252; experiment: Microtitre plate growth inhibition with dermaseptin s3(1-16) or magainin 2 and lysostaphin (Examples 3, 4); assay type: cell-based; conditions: either strain, up to 50 μg ml^−1
MRSA252 = experiment: Bactericidal assay, survivors after 30 minute exposure in TSB broth; assay type: cell-based, Staphylococcus aureus
Description: MRSA252 in TSB broth was exposed for 30 mins to either: increasing concentrations (0, 1, 2, 4, 6, 8 and 10 μg/ml) of ranalexin alone (filled squares); increasing concentrations (0.0, 0.01, 0.02, 0.04, 0.06, 0.08, 0.1 μg/ml) of lysostaphin alone (filled circles); or a combination of 8 μg/ml ranalexin with increasing concentrations (0.0, 0.01, 0.02, 0.04, 0.06, 0.08, 0.1 μg/ml) of lysostaphin. Total cell numbers, or survivors, after a 30 minute exposure to each of the above conditions were determined by serial dilution and plating on TSB agar. Survivors were determined after 24 hours incubation of the TSB plates at 37° C. and expressed as the log of colony forming units per ml of broth. The arrows on FIG. 7 indicate that the numbers of survivors were less than the minimum detectable by this method.

[2] = system: Staphylococcus aureus MRSA252; experiment: Microtitre plate growth inhibition in TSB, 48 hours, turbidity; assay type: cell-based; conditions: for concentration needed for inhibition, compound alone: MRSA252, 48 hours, in the absence of the other compound
Description: (§1) Staphylococcus aureus strains MSSA476 (left) and MRSA252 (right) were cultivated in TSB (Tryptone Soya Broth; Oxoid Basingstoke, UK) to mid-exponential phase. Cultures were then diluted in fresh medium to a starting optical density of 600 nm of 0.001 (approximately 1.0×10^6 cells/ml). Growth of 100 μl volume cultures was measured in 96-well culture plates using TSB as control for 37° C. for 48 hours without shaking in the presence of 0 μg ranalexin/ml medium to 50 μg/ml, increasing stepwise by 5 μg/ml. 8 samples were cultivated for each concentration of ranalexin and to each such sample a different concentration of lysostaphin was added from 0 μg/ml to 1.05 μg/ml in steps of 0.15 μg/ml. The antibacterial activity was measured by reduced turbidity measured by optical density by scanning on an Image Scanner (GE Healthcare UK Ltd) using Image Master Labscan v.3 software. The concentration of ranalexin is indicated above the respective column, each well of a column having the same ranalexin concentration. The wells of each row contain lysostaphin at a final concentration of 0 μg lysostaphin per ml medium to 1.05 μg/ml (as indicated on left), increasing stepwise by 0.15 μg/ml. For S. aureus MSSA476 cultivated in the absence of lysostaphin, ranalexin provides an inhibitory effect at concentrations above 30 μg/ml medium (typically 35 to 40 μg/ml). […] The combination of ranalexin and lysostaphin reduces the necessary amount of each of the compounds by providing a synergistic antimicrobial effect.
(§2) Staphylococcus aureus strains MSSA476 (left) and MRSA252 (right) were cultivated in TSB medium as described in Example 1, except for the narrower concentration ranges of ranalexin and lysostaphin. Ranalexin is provided at concentrations of 0 μg/ml, 0.5 μg/ml and 1 μg/ml to 10 μg/ml, increasing stepwise by 1 μg/ml medium, and lysostaphin concentrations of 0 μg/ml to 0.2 μg/ml, with intermediate concentrations of 0.01 μg/ml, 0.025 μg/ml, 0.05 μg/ml, 0.075 μg/ml, 0.1 μg/ml and 0.15 μg/ml as indicated in FIG. 2.

[3] = system: Staphylococcus aureus MSSA476; experiment: as above; assay type: cell-based
Description: as §1, §2

[4] = system: Staphylococcus aureus MRSA252 and Staphylococcus aureus MSSA476; experiment: Impregnated dried paper disks on TSA plates, zones of inhibition; assay type: cell-based; conditions: none at lower amounts
Description: Sterile Whatman paper disks were impregnated with ranalexin (0.5, 1, 2, 5, 10 or 20 μg), with lysostaphin (0.1, 0.2, 0.5, 1, 2 or 5 μg), a combination of 1 μg lysostaphin and ranalexin (0.5, 1, 2, 5, 10 or 20 μg), or a combination of 10 μg ranalexin and lysostaphin ([…], 0.5, 1, 2 or 5 μg). The paper disks were allowed to dry overnight and then stored at −20° C. until required.
Cultures of Staphylococcus aureus MRSA252 and Staphylococcus aureus MSSA476 were grown to mid-log phase (OD600 0.6-0.9) and diluted to 0.6 if necessary. 150 μl of the culture was then spread onto TSA (Tryptone Soya Agar; Oxoid, Basingstoke, UK) plates and allowed to dry. An impregnated paper disk prepared as described above was placed centrally on the agar plates. Plates were incubated for 20 hours at 37° C. before visual assessment of the zones of inhibition (see FIG. 8) which were visible as clear areas around the disks.

Magainin 2
inhibitory effect of the peptide alone [1]: little inhibitory effect

lysostaphin: 27 kDa zinc-dependent metallopeptidase (glycylglycine endopeptidase) secreted by Staphylococcus simulans and S. staphylolyticus
reduction in numbers (MRSA252; 0.06 μg ml^−1 lysostaphin, 30 minutes): 0.5 log
effect on viable cell numbers (MRSA252; lysostaphin alone, 0.01 to 0.1 μg ml, 30 minutes): minor decrease in viable cell numbers
concentration needed for inhibition, compound alone [2]: above 0.45 μg/ml
MIC ([2]; MRSA252, lysostaphin alone): approximately 0.45 μgml
concentration providing an inhibitory effect, compound alone ([3]; MSSA476, 48 hours, in the absence of the other compound): above 0.75 μg/ml
MIC ([3]; MSSA476, lysostaphin alone): approximately 0.75 μg/ml
zone of inhibition, agent alone ([4]; disk with 5 μg lysostaphin): some minimal inhibition

ranalexin: 20 amino acid bullfrog peptide FLGGLIKIVPAMICAVTKKC (SEQ ID NO 1) with a single intramolecular disulphide bond (FLGGLIKIVPAMICAVTKKC; disulfide 14-20 (inferred); listed as Rana catesbeiana)
effect on viability (MRSA252; ranalexin alone up to 10 μg ml^−1, 30 minutes): no detectable effect on viability
concentration needed for inhibition, compound alone [2]: above 40 μg/ml
zone of inhibition, agent alone ([4]; disk with 20 μg ranalexin): some minimal inhibition
